Measured values taken from patent US9689040B2, “Selective inhibitors of tumor-initiating cells” (Children's Medical Center Corporation, priority 2011, dated 2017).
Like-named read-outs stand apart in the source and are kept apart here.

Tests used:
[1] = system: BPE cells
[2] = system: BPLER cells; assay: Cell viability after drug treatment (CellTiterGlo / Trypan-Blue); type: cell-based, human; conditions: increasing doses, 24 hr
[3] = system: HMLER cells; assay: qRT-PCR of TGS transcripts after TSA treatment; type: cell-based, human; conditions: 1 μM TSA, 24 hr
Experimental: (§1) The CMAP data predicted that TSA would suppress expression of 52 TGS transcripts by ≧1.8-fold (Table 6). We measured the change in expression of the top 11 of these transcripts in BPLER and HMLER cells treated with TSA.
(§2) qRT-PCR analysis was performed as described^41. Briefly, total RNA was extracted with TRIZOL (Invitrogen) and cDNA prepared from 600-900 ng total RNA using TH[…] kit (Invitrogen) as per the manufacturer's instructions. 2.5 ul of diluted cDNA (1:20) was used as template for qPCR using POWER SYBR-GREEN MASTER MIX (Applied Biosystems) and BIORAD C1000 THERMAL CYCLER (Biorad). Primer sequences are available upon request. Relative CT values were normalized to […]-actin and converted to a linear scale using the −ΔCT method.

[4] = system: BPLER cells; assay: qRT-PCR of TGS transcripts after TSA treatment; type: cell-based, human; conditions: 1 μM TSA, 24 hr
Experimental: as §1, §2

[5] = system: TGS transcripts; conditions: Instance ID 6709, cited from earlier work

With CC(/C=C/C(=O)NO)=C\[C@@H](C)C(=O)c1ccc(N(C)C)cc1 [TSA, Trichostatin A] the BPE viability ([1]; at the indicated dose) was “no effect on BPE viability”, the “combination with bortezomib: cytotoxicity in untransformed BPE cells” value ([1]; in vitro) was “not cytotoxic” and the “sensitivity of BPLER relative to HMLER cells (viability)” value [2] was “selectively lethal for BPLER compared to HMLER”. The “expression of the top 11 predicted TGS transcripts” value [3] was “All but two of these also had significantly reduced expression”, the “expression of the top 11 predicted TGS transcripts” value [4] was “significantly decreased” and the Amplitude ([5]; BUB1, probe set 215509_s_at) was −0.84. For the same molecule, the Amplitude ([5]; C7orf25 /// PSMA2, probe set 221573_at) was −0.7, the Amplitude ([5]; C12orf10, probe set 218220_at) was −0.5 and the Amplitude ([5]; C19orf29, probe set 215954_s_at) was −0.49. The Amplitude ([5]; CANX, probe set 208852_s_at) was −0.55, the Amplitude ([5]; CANX, probe set 208853_s_at) was −0.81 and the Amplitude ([5]; CCNA2, probe set 203418_at) was −0.83. For the same molecule, the Amplitude ([5]; CCNA2, probe set 213226_at) was −0.63, the Amplitude ([5]; CDC5L, probe set 209055_s_at) was −1.19 and the Amplitude ([5]; CDK13, probe set 207318_s_at) was −0.87. The Amplitude ([5]; CDK13, probe set 207319_s_at) was −0.79, the Amplitude ([5]; CDK17, probe set 206474_at) was −0.74 and the Amplitude ([5]; CDK17, probe set 221918_at) was −0.66. The Amplitude ([5]; DDX19A /// DDX19B, probe set 202576_s_at) was −0.73, the Amplitude ([5]; DHX8, probe set 203334_at) was −0.45 and the Amplitude ([5]; DNAJC11, probe set 215792_s_at) was −0.47. The Amplitude ([5]; DYSF, probe set 218660_at) was −0.43, the Amplitude ([5]; FYCO1, probe set 218204_s_at) was −0.5 and the Amplitude ([5]; GAPDH, probe set AFFX-HUMGAPDH/M33197_5_at) was −1.17. For the same molecule, the Amplitude ([5]; GAPDH, probe set AFFX-HUMGAPDH/M33197_M_at) was −0.62, the Amplitude ([5]; HIPK3, probe set 210148_at) was −0.46 and the Amplitude ([5]; LSM2, probe set 209449_at) was −0.44. The Amplitude ([5]; MCL1, probe set 200796_s_at) was −1.46, the Amplitude ([5]; MFSD5, probe set 212861_at) was −0.77 and the Amplitude ([5]; MGAT2, probe set 203101_s_at) was −0.67. For the same molecule, the Amplitude ([5]; MTA2, probe set 203444_s_at) was −0.74, the Amplitude ([5]; NAA38, probe set 219119_at) was −0.47 and the Amplitude ([5]; NDC80, probe set 204162_at) was −1.07. The Amplitude ([5]; NME3, probe set 204862_s_at) was −0.6, the Amplitude ([5]; NUP205, probe set 212247_at) was −0.65 and the Amplitude ([5]; PDCD4, probe set 202731_at) was −1.07. For the same molecule, the Amplitude ([5]; PFKL, probe set 201102_s_at) was −0.67, the Amplitude ([5]; POLR2F, probe set 209511_at) was −0.43 and the Amplitude ([5]; PRC1, probe set 218009_s_at) was −0.67. The Amplitude ([5]; PSMA1, probe set 201676_x_at) was −0.4, the Amplitude ([5]; PSMA1, probe set 210759_s_at) was −0.74 and the Amplitude ([5]; PSMA1, probe set 211746_x_at) was −0.45. For the same molecule, the Amplitude ([5]; PSMA2, probe set 201317_s_at) was −0.41, the Amplitude ([5]; PSMA3, probe set 201532_at) was −0.63 and the Amplitude ([5]; PSMB4, probe set 202243_s_at) was −0.43. The Amplitude ([5]; PSMC1, probe set 204219_s_at) was −0.53, the Amplitude ([5]; PSMC3, probe set 201267_s_at) was −1.66 and the Amplitude ([5]; PSMD7, probe set 201705_at) was −1.01. For the same molecule, the Amplitude ([5]; RAN, probe set 200750_s_at) was −0.48, the Amplitude ([5]; RBM22, probe set 218134_s_at) was −0.75 and the Amplitude ([5]; RBMX, probe set 213762_x_at) was −0.58. The Amplitude ([5]; SCD, probe set 211162_x_at) was −0.92, the Amplitude ([5]; SCD, probe set 211708_s_at) was −0.83 and the Amplitude ([5]; SH3GL3, probe set 211565_at) was −0.64. The Amplitude ([5]; SNW1, probe set 215424_s_at) was −1.16, the Amplitude ([5]; TMED3, probe set 208837_at) was −0.42 and the Amplitude ([5]; TMEM14B, probe set 221452_s_at) was −0.48. For the same molecule, the Amplitude ([5]; TNPO1, probe set 207657_x_at) was −0.42, the Amplitude ([5]; TNPO1, probe set 209226_s_at) was −0.68 and the Amplitude ([5]; USP39, probe set 217829_s_at) was −0.56. For the same molecule, the Amplitude ([5]; probe set 200749_at (gene symbol —)) was −0.5.
